α2δ binding affinity data for five molecules are collected here from patent publication US7053122B2, “Therapeutic use of aryl amino acid derivatives” (Pfizer Inc, priority 2002, dated 2006).

The experiment deals with α2δ subunit derived from porcine brain tissue. The experiment in a line: radioligand binding assay using [3H]gabapentin and the α2δ subunit. As to conditions: [3H]gabapentin radioligand. From the text: The biological activity of the compounds of the invention may be measured in a radioligand binding assay using [^3H]gabapentin and the α2δ subunit derived from porcine brain tissue (Gee N. S., Brown J. P., Dissanayake V. U. K., Offord J., Thurlow R., Woodruff G. N., J. Biol. Chem., 1996; 271:5776–5879). Results may be expressed in terms of μM or nM α2δ binding affinity.
`Cl.NCc1ccc(Cl)cc1C(=O)O` [Example 1, 2-Aminomethyl-5-chloro-benzoic acid hydrochloride salt] displayed a α2δ binding affinity of 100 nM.
On to `Cl.NCc1cc(Cl)c(Cl)cc1C(=O)O` [Example 2, 2-Aminomethyl-4,5-dichloro-benzoic acid hydrochloride salt], for which the α2δ binding affinity amounted to 435 nM.
In turn, `Cl.NCc1cccc(Cl)c1C(=O)O` [Example 4, 2-Aminomethyl-6-chloro-benzoic acid hydrochloride salt] had a α2δ binding affinity of 383 nM.
`CC(N)c1ccccc1C(=O)O.Cl` (centres unmarked) [Example 5, 2-(1-Amino-ethyl)-benzoic acid hydrochlorid salt] returned a α2δ binding affinity of 270 nM.
Take `Cl.NCc1ccc(Cl)cc1-c1noc(=O)[nH]1` [Example 7, 3-(2-Aminomethyl-5-chloro-phenyl)-4-H-[1,2,4]loxadiazol-5-one hydrochloride salt]: the α2δ binding affinity was determined as 8000 nM.
